Source: patent publication US20080051457A1, “Optically Active Phthalamide Derivative, Agricultural or Horticultural Insecticide, and Method of Using the Same” (priority 2004, published 2008)

assay: logP (pH2.3), physical properties of Tables 1 to 3; type: physicochemical; details: not given
From the text: However, the present invention is not limited to these compounds. In the tables, the term “physical properties” means a melting point or logp. The symbol “Me” represents a methyl group, “Et” represents an ethyl group, “Pr” represents a propyl group, “-n” represents normal, and “-i” represents iso.

| SMILES | Physical properties logP(pH2.3) |
| --- | --- |
| CCC(C[S+](C)[O-])NC(=O)c1c(Cl)cccc1C(=O)Nc1ccc(C(F)(C(F)(F)F)C(F)(F)F)cc1C (mixture of isomers) [Compound 1-340] | 2.78 |

same assay, conditions: Table 1

| SMILES | Physical properties: logP |
| --- | --- |
| CCSC[C@H](C)NC(=O)c1c(I)cccc1C(=O)Nc1ccc(C(F)(C(F)(F)F)C(F)(F)F)c(F)c1C [Compound 1-105] | 4.71 |
| CC[S+]([O-])C[C@H](C)NC(=O)c1c(I)cccc1C(=O)Nc1ccc(C(F)(C(F)(F)F)C(F)(F)F)c(F)c1C (stereo partly drawn) [Compound 1-106] | 2.97 |
| CCS(=O)(=O)C[C@H](C)NC(=O)c1c(I)cccc1C(=O)Nc1ccc(C(F)(C(F)(F)F)C(F)(F)F)c(F)c1C [Compound 1-107] | 3.47 |
| CCSC[C@H](C)NC(=O)c1c(I)cccc1C(=O)Nc1ccc(C(F)(F)C(F)(F)F)c(F)c1C [Compound 1-108] | 4.36 |
| CCS(=O)(=O)C[C@H](C)NC(=O)c1c(I)cccc1C(=O)Nc1ccc(C(F)(F)C(F)(F)F)c(F)c1C [Compound 1-110] | 3.15 |
| CCSC[C@H](C)NC(=O)c1c(I)cccc1C(=O)Nc1ccc(C(F)(F)C(F)(F)F)c(Cl)c1C [Compound 1-111] | 4.53 |
| CCSC[C@H](C)NC(=O)c1c(I)cccc1C(=O)Nc1cc(F)c(OC(F)(F)F)cc1Br [Compound 1-114] | 4.28 |
| CCS(=O)(=O)C[C@H](C)NC(=O)c1c(I)cccc1C(=O)Nc1cc(F)c(OC(F)(F)F)cc1Br [Compound 1-116] | 3.09 |
| CCSC[C@H](C)NC(=O)c1c(I)cccc1C(=O)Nc1cc(F)c(OC(F)(F)F)cc1Cl [Compound 1-117] | 4.26 |
| CCS(=O)(=O)C[C@H](C)NC(=O)c1c(I)cccc1C(=O)Nc1cc(F)c(OC(F)(F)F)cc1Cl [Compound 1-119] | 3.07 |
| CCSC[C@H](C)NC(=O)c1c(I)cccc1C(=O)Nc1ccc(Br)c(F)c1C [Compound 1-120] | 3.65 |
| CCS(=O)(=O)C[C@H](C)NC(=O)c1c(I)cccc1C(=O)Nc1ccc(Br)c(F)c1C [Compound 1-122] | 2.49 |
| CCSC[C@H](C)NC(=O)c1c(I)cccc1C(=O)Nc1ccc(OC(F)(F)F)c(F)c1C [Compound 1-123] | 3.90 |
| CCS(=O)(=O)C[C@H](C)NC(=O)c1c(I)cccc1C(=O)Nc1ccc(OC(F)(F)F)c(F)c1C [Compound 1-125] | 2.77 |
| CCSC[C@H](C)NC(=O)c1c(I)cccc1C(=O)Nc1ccc(C(F)(F)F)c(F)c1C [Compound 1-126] | 3.90 |
| CCS(=O)(=O)C[C@H](C)NC(=O)c1c(I)cccc1C(=O)Nc1ccc(C(F)(F)F)c(F)c1C [Compound 1-128] | 2.74 |
| CCSC[C@H](C)NC(=O)c1c(I)cccc1C(=O)Nc1ccc(Br)c(Br)c1C [Compound 1-129] | 3.89 |
| CCS(=O)(=O)C[C@H](C)NC(=O)c1c(I)cccc1C(=O)Nc1ccc(Br)c(Br)c1C [Compound 1-131] | 2.67 |
| CCSC[C@H](C)NC(=O)c1c(I)cccc1C(=O)Nc1ccc(I)c(F)c1C [Compound 1-132] | 3.77 |
| CCS(=O)(=O)C[C@H](C)NC(=O)c1c(I)cccc1C(=O)Nc1ccc(I)c(F)c1C [Compound 1-134] | 2.59 |
| CSC[C@H](C)NC(=O)c1c(I)cccc1C(=O)Nc1ccc(C(F)(F)C(F)(F)F)c(F)c1C [Compound 1-135] | 4.03 |
| Cc1c(NC(=O)c2cccc(I)c2C(=O)N[C@@H](C)C[S+](C)[O-])ccc(C(F)(F)C(F)(F)F)c1F (stereo partly drawn) [Compound 1-136] | 2.50 |
| Cc1c(NC(=O)c2cccc(I)c2C(=O)N[C@@H](C)CS(C)(=O)=O)ccc(C(F)(F)C(F)(F)F)c1F [Compound 1-137] | 2.97 |
| CSC[C@H](C)NC(=O)c1c(I)cccc1C(=O)Nc1ccc(OC(F)(F)F)c(F)c1C [Compound 1-138] | 3.59 |
| Cc1c(NC(=O)c2cccc(I)c2C(=O)N[C@@H](C)CS(C)(=O)=O)ccc(OC(F)(F)F)c1F [Compound 1-140] | 2.60 |
| CSC[C@H](C)NC(=O)c1c(I)cccc1C(=O)Nc1ccc(C(F)(C(F)(F)F)C(F)(F)F)c(F)c1C [Compound 1-141] | 4.41 |
| Cc1c(NC(=O)c2cccc(I)c2C(=O)N[C@@H](C)C[S+](C)[O-])ccc(C(F)(C(F)(F)F)C(F)(F)F)c1F (stereo partly drawn) [Compound 1-142] | 2.78 |
| Cc1c(NC(=O)c2cccc(I)c2C(=O)N[C@@H](C)CS(C)(=O)=O)ccc(C(F)(C(F)(F)F)C(F)(F)F)c1F [Compound 1-143] | 3.27 |
| CSC[C@H](C)NC(=O)c1c(I)cccc1C(=O)Nc1ccc(C(F)(F)C(F)(F)F)c(Cl)c1C [Compound 1-144] | 4.20 |

The remaining lines, values ahead:

| Physical properties: logP | SMILES |
| --- | --- |
| 3.30 | CSC[C@H](C)NC(=O)c1c(I)cccc1C(=O)Nc1ccc(Br)c(F)c1C [Compound 1-147] |
| 2.29 | Cc1c(NC(=O)c2cccc(I)c2C(=O)N[C@@H](C)CS(C)(=O)=O)ccc(Br)c1F [Compound 1-149] |
| 3.42 | CSC[C@H](C)NC(=O)c1c(I)cccc1C(=O)Nc1ccc(I)c(F)c1C [Compound 1-150] |
| 2.40 | Cc1c(NC(=O)c2cccc(I)c2C(=O)N[C@@H](C)CS(C)(=O)=O)ccc(I)c1F [Compound 1-152] |
| 3.55 | CSC[C@H](C)NC(=O)c1c(I)cccc1C(=O)Nc1ccc(Br)c(Br)c1C [Compound 1-153] |
| 2.49 | Cc1c(NC(=O)c2cccc(I)c2C(=O)N[C@@H](C)CS(C)(=O)=O)ccc(Br)c1Br [Compound 1-155] |
| 3.58 | CSC[C@H](C)NC(=O)c1c(I)cccc1C(=O)Nc1ccc(C(F)(F)F)c(F)c1C [Compound 1-156] |
| 4.41 | CCSC[C@H](C)NC(=O)c1c(I)cccc1C(=O)Nc1ccc(OC(F)(F)F)c(Cl)c1Cl [Compound 1-159] |
| 3.18 | CCS(=O)(=O)C[C@H](C)NC(=O)c1c(I)cccc1C(=O)Nc1ccc(OC(F)(F)F)c(Cl)c1Cl [Compound 1-161] |
| 4.42 | CCSC[C@H](C)NC(=O)c1c(I)cccc1C(=O)Nc1ccc(OC(F)(F)F)c(Br)c1Cl [Compound 1-162] |
| 3.19 | CCS(=O)(=O)C[C@H](C)NC(=O)c1c(I)cccc1C(=O)Nc1ccc(OC(F)(F)F)c(Br)c1Cl [Compound 1-164] |
| 3.93 | CSC[C@H](C)NC(=O)c1c(Br)cccc1C(=O)Nc1ccc(C(F)(F)C(F)(F)F)c(F)c1C [Compound 1-165] |
| 2.42 | Cc1c(NC(=O)c2cccc(Br)c2C(=O)N[C@@H](C)C[S+](C)[O-])ccc(C(F)(F)C(F)(F)F)c1F (stereo partly drawn) [Compound 1-166] |
| 2.86 | Cc1c(NC(=O)c2cccc(Br)c2C(=O)N[C@@H](C)CS(C)(=O)=O)ccc(C(F)(F)C(F)(F)F)c1F [Compound 1-167] |
| 4.31 | CSC[C@H](C)NC(=O)c1c(Br)cccc1C(=O)Nc1ccc(C(F)(C(F)(F)F)C(F)(F)F)c(F)c1C [Compound 1-168] |
| 2.72 | Cc1c(NC(=O)c2cccc(Br)c2C(=O)N[C@@H](C)C[S+](C)[O-])ccc(C(F)(C(F)(F)F)C(F)(F)F)c1F (stereo partly drawn) [Compound 1-169] |
| 3.21 | Cc1c(NC(=O)c2cccc(Br)c2C(=O)N[C@@H](C)CS(C)(=O)=O)ccc(C(F)(C(F)(F)F)C(F)(F)F)c1F [Compound 1-170] |

| Physical properties: logP | SMILES |
| --- | --- |
| 4.26 | CCSC[C@H](C)NC(=O)c1c(Br)cccc1C(=O)Nc1ccc(C(F)(F)C(F)(F)F)c(F)c1C [Compound 1-171] |
| 2.59 | CC[S+]([O-])C[C@H](C)NC(=O)c1c(Br)cccc1C(=O)Nc1ccc(C(F)(F)C(F)(F)F)c(F)c1C (stereo partly drawn) [Compound 1-172] |
| 3.06 | CCS(=O)(=O)C[C@H](C)NC(=O)c1c(Br)cccc1C(=O)Nc1ccc(C(F)(F)C(F)(F)F)c(F)c1C [Compound 1-173] |
| 4.43 | CCSC[C@H](C)NC(=O)c1c(Br)cccc1C(=O)Nc1ccc(C(F)(F)C(F)(F)F)c(Cl)c1C [Compound 1-174] |
| 3.19 | CCS(=O)(=O)C[C@H](C)NC(=O)c1c(Br)cccc1C(=O)Nc1ccc(C(F)(F)C(F)(F)F)c(Cl)c1C [Compound 1-176] |
| 3.54 | CCSC[C@H](C)NC(=O)c1c(Br)cccc1C(=O)Nc1ccc(Br)c(F)c1C [Compound 1-177] |
| 2.39 | CCS(=O)(=O)C[C@H](C)NC(=O)c1c(Br)cccc1C(=O)Nc1ccc(Br)c(F)c1C [Compound 1-179] |
| 3.80 | CCSC[C@H](C)NC(=O)c1c(Br)cccc1C(=O)Nc1ccc(C(F)(F)F)c(F)c1C [Compound 1-180] |
| 2.66 | CCS(=O)(=O)C[C@H](C)NC(=O)c1c(Br)cccc1C(=O)Nc1ccc(C(F)(F)F)c(F)c1C [Compound 1-182] |
| 3.66 | CCSC[C@H](C)NC(=O)c1c(Br)cccc1C(=O)Nc1ccc(I)c(F)c1C [Compound 1-183] |
| 2.51 | CCS(=O)(=O)C[C@H](C)NC(=O)c1c(Br)cccc1C(=O)Nc1ccc(I)c(F)c1C [Compound 1-185] |
| 3.78 | CCSC[C@H](C)NC(=O)c1c(Br)cccc1C(=O)Nc1ccc(Br)c(Br)c1C [Compound 1-186] |
| 2.59 | CCS(=O)(=O)C[C@H](C)NC(=O)c1c(Br)cccc1C(=O)Nc1ccc(Br)c(Br)c1C [Compound 1-188] |
| 3.81 | CCSC[C@H](C)NC(=O)c1c(Br)cccc1C(=O)Nc1ccc(OC(F)(F)F)c(F)c1C [Compound 1-189] |
| 2.69 | CCS(=O)(=O)C[C@H](C)NC(=O)c1c(Br)cccc1C(=O)Nc1ccc(OC(F)(F)F)c(F)c1C [Compound 1-191] |
| 4.16 | CCSC[C@H](C)NC(=O)c1c(Br)cccc1C(=O)Nc1cc(F)c(OC(F)(F)F)cc1Cl [Compound 1-192] |
